From US8618114B2 (priority 2008, dated 2013)

Legend:
[1] = system: male mice of BALB/c line; assay: Passive avoidance in the shuttle chamber, Scopolamine amnesia model, mice; format: in vivo, mouse; details: compounds injected 30 minutes before the test, read 24 hours after training, FIG. 4-6
Protocol: (§1) 14.1.1. Passive Avoidance of mice in the Shuttle Chamber. The experiments were carried out in aged male mice of BALB/c line weighing 20-24 g or male rats weighing 200-250 g.
(§2) A shuttle chamber (Ugo Basile, Italy) that consisted of two sections was used. One section was white and lightened, the other one was dark. The sections were connected through a hole which could be overlapped by automatic vertical door. The floor of the dark section was made of transverse metal bars on which DC current impulses could be fed.
(§3) On the first day of testing 30 minutes before training the animals were injected intraperitoneally with Scopolamine which causes disturbance of training (memory loss). The animals of the trial group were additionally administered with one of the tested compounds. The animals of the control group were injected with physiological solution. Each group consisted of 8 animals. The animals were placed in the light section, and latent period of the first entry into the dark chamber was registered. Then vertical door was closed and the animal was punished by 0.6 mA DC current for 3 seconds. After that the animal was taken back to its home cage. […]

[2] = system: mice; assay: Passive avoidance in the shuttle chamber, amnesia caused by MK-801, mice; format: in vivo, mouse; details: MK-801 0.1 mg/kg i.p., compounds injected 30 minutes before the test, FIG. 11-13
Protocol: as §2
On the first day of testing 30 minutes before training the animals were injected intraperitoneally with Scopolamine which causes disturbance of training (memory loss). The animals of the trial group were additionally administered with one of the tested compounds. The animals of the control group were injected with physiological solution. Each group consisted of 8 animals. The animals were placed in the light section, and latent period of the first entry into the dark chamber was registered. Then vertical door was closed and the animal was punished by 0.6 mA DC current for 3 seconds. After that the animal was taken back to its home cage. In 22-24 hours the same animal was placed again in the light section of the shuttle chamber and latent period of its first entry into the dark section, the total time of its stay in the light section and the number of entries into the dark section were registered. Each monitoring lasted for 5 minutes.
14.2.1. Passive Avoidance of mice in the Shuttle Chamber. The test was carried out as in example 14.1.1. […]

[3] = biological target: T1, 5-HT6 receptor (Homo sapiens (Human), UniProt P50406); assay: functional assay for serotonin 5-HT6 receptor inhibition (serotonin-induced intracellular cAMP, LANCE cAMP kit, HEK 293 cells); format: cell-based; details: HEK 293 cells with expressed 5-HT6 receptor; reduction of serotonin-induced intracellular cAMP
T1 sequence (P50406 whole entry): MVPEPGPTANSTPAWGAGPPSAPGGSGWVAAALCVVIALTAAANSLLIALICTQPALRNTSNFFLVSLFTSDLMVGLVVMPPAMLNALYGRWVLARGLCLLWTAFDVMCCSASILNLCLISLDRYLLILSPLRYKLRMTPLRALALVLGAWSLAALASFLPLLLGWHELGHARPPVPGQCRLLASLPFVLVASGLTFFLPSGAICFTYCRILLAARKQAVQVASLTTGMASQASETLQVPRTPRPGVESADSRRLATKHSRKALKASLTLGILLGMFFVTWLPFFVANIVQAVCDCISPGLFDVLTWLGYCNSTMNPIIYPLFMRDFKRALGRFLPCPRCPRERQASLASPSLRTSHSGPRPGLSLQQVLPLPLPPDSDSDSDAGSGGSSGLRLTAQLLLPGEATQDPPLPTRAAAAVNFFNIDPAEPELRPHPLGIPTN
Protocol: Determination of antagonistic activity of compounds of the general formula 1 towards 5-HT6 receptors. Compounds of the general formula 1 were tested for their ability to prevent 5-HT6 receptors activation by serotonin. HEK 293 cells (cells of human embryo's kidney) with artificially expressed 5-HT6 receptor, activation of which by serotonin leads to increasing the concentration of intracellular cAMP, were used. The level of intracellular cAMP was determined using reagent kit LANCE cAMP (PerkinElmer) according to the method described by the manufacturer of the kit [http://las.perkinelmer.com/content/Manuals/MAN_LANCEcAMP384KitUser.pdf]. Effectiveness of the compounds was estimated by their ability to reduce the level of intracellular cAMP induced by serotonin. Table 4 presents IC50 values for the compounds of general formula 1 in the setting of functional assay for serotonin 5-HT6 receptor inhibition. The data given testify their moderate or high antagonistic activity.

[4] = system: male rats; assay: Passive avoidance in the shuttle chamber, Scopolamine amnesia model, rats; format: in vivo, rat; details: compounds injected 60 minutes before the test, read 24 hours after training, FIG. 1-3
Protocol: as §1, §2, §3

[5] = system: male mice of BALB/c line; assay: Porsolt's Forced Swim Test; format: in vivo, mouse; details: i.p. for 4 days subchronically; FIG. 18
Protocol: 17.1. Mice Behavior in Porsolt's Forced Swim Test. Expression of behavioral despair was offered to use as a model for investigation of antidepressant activity in Porsolt's test (1977, 1978). That is, the behavior of a mouse or rat in a closed basin, from which the animal can not get out, cheracterizes the level of its despair which could be reduced by means of antidepressant intake.
Male mice of BALB/c line weighing about 20-30 g were used in the test. The animals were placed for 15 minutes in the basin (of 300 mm height, 480 mm diameter) filled with water to 70% of its volume at 25° C. In 3-5 minutes swimming activity began to decrease and change by phases of movement and immobility. […] Data for the last 5 minutes of the test were taken for the analysis. Automated computerized detection of motion with videosystem and Any-maze program were used in the test. The tested compounds 1.2.7(1) and 1.2.22(18) were injected intraperitonelly for 4 days subchronically.

[6] = system: male mice of SHK line; assay: Novel object recognition test, Scopolamine amnesia model; format: in vivo, mouse; details: Scopolamine 1 mg/kg i.p.; compounds i.p. 60 minutes before training; FIG. 7
Protocol: 14.1.2. Novel object recognition test. The test was carried out in aged male mice of SHK line. […] A mouse was placed into the central chamber and allowed to explore the maze. The floor was cleaned after each animal. The sequence of chamber entries and duration of visits were registered by the observer. The test was ended after 13 entries into the dead-end chambers. Criterion for entry was a location of all animal's paws inside the chamber at the same time.
During the training the animal was placed in the maze with one equiform bowl in each side chamber. In the course of testing (one hour after training) two opposite standing bowls were replaced by identical flasks, and the animal was allowed to explore the maze. The time spent by the animal in each side chamber was registered during the periods of training and testing. Index of novel object recognition was calculated as the ratio of time spent by the animal in the side chambers with novel objects to the total time spent by it in all side chambers.

[7] = system: Mice of SHK line; assay: Prepulse inhibition of the startle response in mice (Apomorphine model); format: in vivo, mouse; details: 1 mg/kg i.p. 60 minutes before the test; FIG. 17
Protocol: Mice of SHK line weighing about 24-30 g were used in the test. The experiments were carried out during the light period of animal's diurnal. Apomorphine hydrochloride and Haloperidol were received from Sigma Chemicals Company, (USA). Apomorphine hydrochloride was dissolved in 0.1% solution of ascorbic acid prepared with sterilized water; it was introduced subcutaneously 15 minutes before the test. Haloperidol was dissolved in sterilized water using emulsifier Twin 80, it was introduced intraperitoneally 60 minutes before the test. Compounds 1.2.22(1), 1.2.22(18), 1.2.7(1) were dissolved in sterilized water and introduced intraperitoneally 60 minutes before the test. The injection volume was 10 ml/kg. 0.1%. Solution of ascorbic acid, prepared with sterilized water and Twin 80, was injected to control group of animals.
The test instrument consisted of a chamber made of transparent plexiglass (manufacturer—Columbia Instruments Company, USA) and placed on the platform; the latter was lodged inside the sound insulating chamber. A high frequency sound column transmitting acoustic stimuluses was located 2 cm away from the platform. […] The level of background noise made up 65 dB. Each animal received 4 stimuli of single testing (pulse) stimulus of 50 ms duration and 105 dB or prepulsory stimulus (pre-pulse) of 20 ms duration and 85 dB, after which in 30 ms pulse stimulus of 50 ms duration and 105 dB followed. Time interval between repeated pulse or prepulse in combination with pulse stimuli made up 10 s. Inhibition of the startle in reply to prepulse-plus-pulse stimulus was calculated in percentage towards amplitude of startle in response to isolated pulse stimulus.

[8] = biological target: T1, 5-HT6 receptor; assay: competitive radioligand binding ([3H] Lysergic acid diethylamide) to serotonin 5-HT6 receptors, HeLa cell membranes; details: read-out: IC50, competitive assay of serotonin 5-HT6 receptor inhibition; displacement of 1.5 nM [3H] Lysergic acid diethylamide, 120 min at 37° C.
Protocol: Determination of activity of the compounds of the general formula 1 in the setting of competitive binding to serotonin 5-HT6 receptors.
Screening of the disclosed compounds for their potential ability to interact with serotonin 5-HT6 receptors was carried out by method of radioligand binding. For this purpose membrane species were prepared from expressing recombinant human 5-HT6 receptors HeLa cells by means of their homogenization in glass homogenizer with subsequent separation of plasmatic membranes from cell nucli, mitochondria's and cell wreckages by differential centrifugation. Determination of tested compounds binding to 5-HT6 receptors was carried out according to the method described in [Monsma F J Jr, Shen Y, Ward R P, Hamblin M W and Sibley D R, Cloning and expression of a novel serotonin receptor with high affinity for tricyclic psychotropic drugs. […] After incubation the samples were filtered in vacuo on glass-microfiber filters G/F (Millipor, USA), filters were washed three times with cold solution of the medium and radioactivity was measured by scintillation counter MicroBeta 340 (PerkinElmer, USA). Nonspecific binding which made up 30% of overall binding was determined by incubation of membrane preparations with radioligand in the presence of 5 μM Serotonin (5-HT). Methiothepin was used as positive control. Binding of the tested compounds to the receptor was determined by their ability to displace the radioligand and expressed in percent of displacement. The percent of displacement was calculated according to the following equation:
[formula] wherein: TA—was overall radioactivity in the presence of radioligand only, CA—was radioactivity in the presence of radioligand and tested compound and NA—was radioactivity in the presence of radioligand and Serotonin (5 μM).

[9] = system: rats; assay: Passive avoidance in the shuttle chamber, amnesia caused by MK-801, rats; format: in vivo, rat; details: MK-801 0.1 mg/kg i.p., compounds injected 60 minutes before the test, FIG. 8-10
[10] = system: male mice of BALB/c line; assay: Tail suspension test; format: in vivo, mouse; details: i.p. during 4 days; FIG. 19
From the text: 17.2. Mice behavior in tail suspension test. Tail suspension test was described by Steri et al. (1985) as a convenient method for investigation of potential antidepressants. It is supposed that forced immobility in rodents could be used as a model for investigation of depressive disorders at humans. Clinically effective antidepressants lower mice immobility which follows negative attempts to become free when their tails are fixed.
Male mice of BALB/c line weighing about 20-30 g were used in the test. The animals were suspended by tail with a sticky tape on the holder over a horizontal surface at a height of about 40 cm, and the total duration of complete immobility episodes was registered in the course of 3 minutes. […] Automated computerized detection of motion with videosystem and Any-maze program were used in the test. The tested compounds 1.2.7(1) and 1.2.22(18) were administered intraperitoneally during 4 days. Reference substances (Fluoxetine, Desipramine) were injected intraperitoneally 15 minutes before the beginning of the test.

[11] = system: male mice of BALB/c line; assay: Mice Behavior in the Elevated Plus Maze; format: in vivo, mouse; details: tested compounds i.p.; FIG. 14-16
Protocol: Anxiolytic activity of compounds 1.1(11), 1.2.7(1), 1.2.6(1), 1.2.3(1), 1.2.11(1), 1.2.22(1), 1.2.22(18) in test “Mice Behavior in the Elevated Plus Maze”. The experiments were carried out in aged male mice of BALB/c line weighing about 25 g. The animals were housed 5-7 per cage with water and food available. None of the animals was acquainted with the experimental set-up before. Each experimental group included 8 animals.
The procedure used was described earlier by Lister (Lister R. G. The use of a plus-maze to measure anxiety in the mouse. Psychopharmacology, 1987; 92:180-185). Plexiglass set-up consisted of two opened arms of 30×5 cm size and two closed arms of 30×5×15 cm size. Side arms were closed with transparent plexiglass and were connected with the central zone via a platform of 5×5 cm size. The opened arms, central platform and floor were made of black plexiglass. The set-up was mounted on a metallic base which was placed 38.5 cm above the floor level.
The animals were injected intraperitoneally with placebo, Buspirone (5 mg/kg, 30 minutes before training), Lorazepam (0.05 mg/kg, 60 minutes before training) or with one of the tested compounds 1.1(11), 1.2.7(1), 1.2.6(1), 1.2.3(1), 1.2.11(1), 1.2.22(1), 1.2.22(18). Buspirone and Lorazepam were introduced in a maximal effective dose, at which side sedative effect and general decrease of exploratory activity (the number of arm entries during the test) were not observed yet.
Each mouse was placed in the maze center with its head towards the opened arm. Over a period of 5 minutes the sequence and duration of arm entries were registered by means of a computer program. Criterion for entry is a location of all animal's paws inside the arm at the same time. The index of preference was calculated as a ratio of the time spent by the animal in the opened arms as well as the number of entries into the opened arms to the total time spent by it in the opened and closed arms or, respectively, to the whole number of entries to the arms of both types. The number of defecations left by a mouse was regarded as an additional parameter characterizing the anxiety state. Being in normal state the animals usually avoid open arms (the preference index is between 0.2 and 0.3).

Row | Compound | effect on amnesia caused by Scopolamine (latent period, light arm stay, dark arm entries) [1] | effect on amnesia caused by MK-801 (latent period, light arm stay, dark arm entries) [2] | IC50 [3] | effect on amnesia caused by Scopolamine (latent period, light arm stay, dark arm entries) [4] | antidepressant activity, immobility during the final 5 minutes in Porsolt's test [5] | prevention of Scopolamine-disturbed novel object recognition [6] | effect on Apomorphine-disturbed prepulse inhibition of startle [7] | IC50 [8] | effect on amnesia caused by MK-801 (latent period, light arm stay, dark arm entries) [9] | antidepressant activity, immobility in tail suspension test [10] | anxiolytic activity in the elevated plus maze [11]
1 | Cc1cc(C)n2nc([S+](C)[O-])c(S(=O)(=O)c3ccccc3)c2n1 (centres unmarked) [1(1)] | decrease amnesia | decrease amnesia caused by MK-801 |  |  |  |  |  |  |  |  | 
2 | CSc1nn2c(C)cc(CO)nc2c1S(=O)(=O)c1ccccc1 [1.1.7(1), 5-(hydroxymethyl)-7-methyl-2-methylsulfanyl-3-phenylsulfonyl-pyrazolo[1,5-a]pyrimidine] |  | decrease amnesia caused by MK-801 | 0.177 µM |  |  |  |  |  |  |  | 
3 | CNc1nn2c(C)cc(CO)nc2c1S(=O)(=O)c1ccccc1 [1.2.7(1), 5-(hydroxymethyl)-7-methyl-2-methylamino-3-phenylsulfonyl-pyrazolo[1,5-a]pyrimidine] |  |  | 0.019 µM | decrease amnesia | exhibits antidepressant activity | prevent memory impairment caused by Scopolamine | prevented disturbance of prepulse inhibition of startle caused by Apomorphine | 0.00088 µM | decrease amnesia caused by MK-801 | antidepressant activity comparable with the activity of Fluoxetine and Desipramine | 
4 | CNc1nn2c(C)c(N(C)C)c(C)nc2c1S(=O)(=O)c1ccccc1 [1.2.22(18)] |  |  |  | decrease amnesia |  | prevent memory impairment caused by Scopolamine | prevented disturbance of prepulse inhibition of startle caused by Apomorphine |  | decrease amnesia caused by MK-801 |  | anxiolytic activity analogous to the activity of control compounds
